Assay [1] deals with mixed lymphocyte reaction (PBMC with allogeneic PBMC or Eppstein-Barr Virus-transformed human B cells as stimulator cells). As to the kind of experiment: Mixed lymphocyte reaction (MLR) assay. Type of assay: cell-based. The note with it: lowest concentration giving 50% suppression of the MLR; [3H]-thymidine. The protocol:
Pteridine derivatives were first dissolved (10 mM) in dimethylsulfoxide (hereinafter referred as DMSO) and further diluted in culture medium before use for the following in vitro experiments. The commercially available culture medium consisted of RPMI-1640+10% foetal calf serum (FCS). Some pteridine derivatives described in the previous examples (as indicated in table 1) were tested in the following mixed lymphocyte reaction (MLR) assay.
Peripheral blood mononuclear cells (hereinafter referred as PBMC) were isolated from heparinized peripheral blood by density gradient centrifugation over Lymphoprep (Nycomed, Maorstua, Norway). Allogeneic PBMC or Eppstein-Barr Virus-transformed human B cells [commercially available under the trade name RPM11788 (ATCC name CCL156)] which strongly express B7-1 and B7-2 antigens were used as stimulator cells after irradiation with 30 Gy. MLR was performed in triplicate wells. After 5 days incubation at 37° C., 1 μCi [^3H]-thymidine was added to each cup. After a further 16 hours incubation, cells were harvested and counted in a […]. Inhibition of proliferation by a compound (drug) described in some of the previous examples was counted using the formula: [formula] wherein cpm is the thymidine count per minute. The MLR assay is regarded by those skilled in the art as an in vitro analogue of the transplant rejection since it is based on the recognition of allogeneic major histocompatibility antigens on the stimulator leukocytes, by responding lymphocytes.

Assay [2] has as its system production of TNF-α by PBMC in response to stimulation by LPS. As to the kind of experiment: TNF-α assay. Type of assay: cell-based, human. The note with it: LPS 1 μg/ml, 72 hours, sandwich ELISA. The protocol: Peripheral blood mononuclear cells (herein referred as PBMC), in response to stimulation by lipopolysaccharide (hereinafter LPS), a gram-negative bacterial endotoxin, produce various […], in particular human TNF-α. Inhibition of the activation of PBMC can therefore be measured by the level of suppression of the production of TNF-α by PBMC in response to stimulation by LPS.
Such inhibition measurement was performed as follows: PBMC were isolated from heparinized peripheral blood by density gradient centrifugation over Lymphoprep (commercially available from Nycomed, Norway). LPS was then added to the PMBC suspension in complete medium (10^6 cells/ml) at a final concentration of 1 μg/ml. The pteridine derivative to be tested was added at different concentrations (0.1 μM, 1 μM and 10 μM) and the cells were incubated at 37° C. for 72 hours in 5% CO2. The supernatants were collected, then TNF-α concentrations were measured with respectively an anti-TNF-α antibody in a sandwich ELISA (Duo Set ELISA human TNFα, commercially available from R&D Systems, United Kingdom). The calorimetric reading of the ELISA was measured by a Multiskan RC plate reader (commercially available from ThermoLabsystems, Finland) at 450 nm (reference wavelength: 690 nm). Data analysis was performed with Ascent software 2.6. (also from ThermoLabsystems, Finland): a standard curve (recombinant human TNFα) was drawn and the amount (pg/ml) of each sample on the standard curve was determined.
The % suppression of human TNFα production by the pteridine derivatives of the invention (drugs) was calculated using the formula: [formula]

In general, IC50 refers to the midpoint of a concentration-inhibition curve. Lower therefore signals higher potency. Consider `CCOC(=O)C(C)N1CCN(c2nc(N)nc3ncc(-c4ccc(OC)c(OC)c4)nc23)CC1` (stereo not shown) [Example 133, 2-amino-4-(2-(piperazin-1-yl)-propionic acid ethyl ester)-6-(3,4-dimethoxyphenyl)pteridine], for which the 50% inhibitory concentration (IC50) in assay [1] came to 1200 nM; in assay [2] it was 330 nM.

For the molecule `COc1ccc(-c2cnc3nc(N)nc(N4CCN(CC5CCCN(C)C5)CC4)c3n2)cc1OC` (stereo not shown) [Example 179, 2-amino-6-(3,4-dimethoxyphenyl)-4-(1-(1-methyl-piperidin-3-yl-methyl)-piperazin-1-yl)pteridine], the 50% inhibitory concentration (IC50) in assay [1] came out at 7900 nM; in assay [2], 1800 nM.

As to `COc1ccc(-c2cnc3nc(N)nc(N4CCN(Cc5ccc(C(C)(C)C)cc5)CC4)c3n2)cc1OC` [Example 144, 2-amino-4-((4-tert-butylbenzyl)piperazin-1-yl)-6-(3,4-dimethoxyphenyl)pteridine], the values for the IC50 in assay [1] and in assay [2] were 4300 nM and 700 nM, respectively.

“2-amino-6-(3,4-dimethoxyphenyl)-4-((tetrahydrofurfuryl)-piperazin-1-yl)pteridine [Example 169]”: the IC50 was found to be 800 nM in assay [1] and 300 nM in assay [2].

For `COc1ccc(-c2cnc3nc(N)nc(N4CCN(CCN(C(C)C)C(C)C)CC4)c3n2)cc1OC` [Example 128, 2-amino-4-(1-(2-diisopropylaminoethyl)-piperazino)-6-(3,4-dimethoxyphenyl)pteridine], the IC50 was 7400 nM in assay [1] and 3300 nM in assay [2].

`COc1ccc(-c2cnc3nc(N)nc(N4CCN(C(=O)c5ccncc5)CC4)c3n2)cc1OC` [Example 19, 2-amino-4-[(N-isonicotinoyl)-piperazin-1-yl]-6-(3,4-dimethoxyphenyl)pteridine]: the half-inhibitory concentration (IC50) in assay [1] came out at 2400 nM; in assay [2], 60 nM.

As for `COc1ccc(-c2cnc3nc(N)nc(N4CCN(Cc5cccc6ccccc56)CC4)c3n2)cc1OC` [Example 158, 2-amino-4-((1-naphtylmethyl)-piperazin-1-yl)-6-(3,4-dimethoxyphenyl)pteridine], the IC50 in assay [1] stood at 800 nM; in assay [2] it was 700 nM.

For `COc1ccc(-c2cnc3nc(N)nc(N4CCN(c5cc(Cl)cc(Cl)c5)CC4)c3n2)cc1OC` [Example 171, 2-amino-4-((3,5-dichlorophenyl)-piperazin-1-yl)-6-(3,4-dimethoxyphenyl)pteridine], the figures for the IC50 in assay [1] and in assay [2] were 3400 nM and 500 nM, respectively.

As for `COc1ccc(-c2cnc3nc(N)nc(N4CCN(C(=O)Nc5cccc(Cl)c5)CC4)c3n2)cc1OC` [Example 193, 2-amino-4-(N-3-chloro-phenyl-carbamoyl-piperazin-1-yl)-6-(3,4-dimethoxyphenyl)pteridine], the IC50 in assay [1] was 36 nM; in assay [2], 500 nM.

Turning to `CCCCNC(=O)N1CCN(c2nc(N)nc3ncc(-c4ccc(OC)c(OC)c4)nc23)CC1` [Example 109, 2-amino-4-[(N-butyl-carbamoyl-piperazin-1-yl)]-6-(3,4-dimethoxyphenyl)pteridine], the values for the IC50 in assay [1] and in assay [2] were 100 nM and 400 nM, respectively.

For the molecule `COc1ccc(-c2cnc3nc(N)nc(N4CCN(C(=O)c5ccc(F)cc5)CC4)c3n2)cc1OC` [Example 32, 2-amino-4-[(N-p-fluorobenzoyl)-piperazin-1-yl]-6-(3,4-dimethoxyphenyl)pteridine], the IC50 in assay [1] and in assay [2] was 400 nM throughout.

For `COc1cccc(C(=O)N2CCN(c3nc(N)nc4ncc(-c5ccc(OC)c(OC)c5)nc34)CC2)c1` [Example 26, 2-amino-4-[N-(3-methoxybenzoyl)piperazin-1-yl]-6-(3,4-dimethoxy-phenyl)pteridine], the IC50 in assay [1] and in assay [2] was 500 nM in each case.

For the molecule `COc1ccc(-c2cnc3nc(N)nc(N4CCN(C(=O)c5ccccc5OC)CC4)c3n2)cc1OC` [Example 42, 2-amino-4-[N-(2-methoxybenzoyl)-piperazin-1-yl]-6-(3,4-dimethoxy-phenyl)pteridine], the IC50 was 400 nM in assay [1] and 100 nM in assay [2].

As for `COCCOC(=O)N1CCN(c2nc(N)nc3ncc(-c4ccc(OC)c(OC)c4)nc23)CC1` [Example 97], the IC50 was determined as 240 nM in assay [1] and 300 nM in assay [2].

With `CCC(=O)N1CCN(c2nc(N)nc3ncc(-c4ccc(OC)c(OC)c4)nc23)CC1` [Example 9, 2-amino-4-[(N-propionyl)-piperazin-1-yl]-6-(3,4-dimethoxyphenyl)pteridine], the values for the concentration for half-maximal inhibition (IC50) in assay [1] and in assay [2] were 500 nM and 140 nM, respectively.

Turning to `COc1ccc(-c2cnc3nc(N)nc(N4CCN(C(=O)Nc5ccc(C#N)cc5)CC4)c3n2)cc1OC` [Example 102, 2-amino-4-(N-4-cyanophenylcarbamoyl-piperazin-1-yl)-6-(3,4-dimethoxyphenyl)pteridine], the IC50 in assay [1] was 74 nM; in assay [2], 630 nM.

In the case of `COc1ccc(-c2cnc3nc(N)nc(N4CCN(C(=O)c5ccc(C#N)cc5)CC4)c3n2)cc1OC` [Example 16, 2-amino-4-[N-(4-cyanobenzoyl)-piperazin-1-yl]-6-(3,4-dimethoxyphenyl)pteridine], the IC50 is 800 nM in assay [1] and 550 nM in assay [2].

On to `COc1ccc(-c2cnc3nc(NCCc4ccccc4)nc(N)c3n2)cc1OC` [Example 79, 2-phenylethylamino-4-amino-6-(3,4-dimethoxyphenyl)pteridine], for which the IC50 in assay [1] came to 4100 nM; in assay [2], 9800 nM.

`COc1ccc(-c2cnc3nc(N)nc(N4CCN(C(=O)Oc5ccc(C)cc5)CC4)c3n2)cc1OC` [Example 90, 2-amino-4-[(N-4-methyl-phenoxy-carbonyl)-piperazin-1-yl]-6-(3,4-dimethoxyphenyl)pteridine]: the results for the IC50 in assay [1] and in assay [2] were 58 nM and 40 nM, respectively.

On to `COc1ccc(-c2cnc3nc(N)nc(N4CCN(C(=O)[C@@H](N)Cc5ccccc5)CC4)c3n2)cc1OC` [Example 60, 2-amino-4-[N-(2-(S)-amino-3-phenylpropionyl)-piperazin-1-yl]-6-(3,4-dimethoxy-phenyl)pteridine], for which the IC50 in assay [1] stood at 4100 nM; in assay [2] it was 2500 nM.

For the molecule `COc1ccc(-c2cnc3nc(N)nc(N4CCN(C(=O)N(C)c5ccccc5)CC4)c3n2)cc1OC` [Example 117, 2-amino-4-(N-methyl-N-phenyl-carbamoyl-piperazin-1-yl)-6-(3,4-dimethoxyphenyl)pteridine], the half-inhibitory concentration (IC50) in assay [1] was 72 nM; in assay [2], 50 nM.

Turning to `COc1ccc(-c2cnc3nc(N)nc(N4CCN(C(=O)COCc5ccccc5)CC4)c3n2)cc1OC` [Example 28, 2-amino-4-[(N-benzyloxyacetyl)-piperazin-1-yl]-6-(3,4-dimethoxyphenyl)pteridine], the results for the IC50 in assay [1] and in assay [2] were 30 nM and 500 nM, respectively.

For `COc1ccc(-c2cnc3nc(N)nc(N4CCN(C(=O)N5CCCC5)CC4)c3n2)cc1OC` [Example 38, 2-amino-4-[(N-1-pyrrolidinylcarbonyl)-piperazin-1-yl]-6-(3,4-dimethoxy-phenyl)pteridine], the half-inhibitory concentration (IC50) in assay [1] came to 300 nM; in assay [2], 60 nM.

As to `COc1ccc(-c2cnc3nc(N)nc(N4CCN(Cc5ccccn5)CC4)c3n2)cc1OC` [Example 177, 2-amino-6-(3,4-dimethoxyphenyl)-4-((2-pyridyl)methyl-piperazin-1-yl)pteridine], the values for the IC50 in assay [1] and in assay [2] were 800 nM and 90 nM, respectively.

On to `COc1ccc(-c2cnc3nc(N)nc(N4CCN(C/C=C/c5ccccc5)CC4)c3n2)cc1OC` [Example 66, 2-amino-4-(N-trans-cinnamylpiperazin-1-yl)-6-(3,4-dimethoxy-phenyl)pteridine], for which the IC50 in assay [1] came out at 800 nM; in assay [2], 300 nM.

Consider `COc1ccc(-c2cnc3nc(N)nc(N4CCN(c5ccccc5OC)CC4)c3n2)cc1OC` [Example 160, 2-amino-4-((2-methoxyphenyl)-piperazin-1-yl)-6-(3,4-dimethoxyphenyl)pteridine], for which the half-inhibitory concentration (IC50) in assay [1] is 3800 nM; in assay [2], 420 nM.

Values taken from patent US20070032477A1, “Pteridine derivatives useful for making pharmaceutical compositions” (priority 2003, published 2007).
